34 compounds from ChEMBL document CHEMBL4330112, “Monodisperse oligoethylene glycols modified Camptothecin, 10-Hydroxycamptothecin and SN38 prodrugs” (Bioorg Med Chem Lett, 2019) can be followed below.

The nature of data set [1]: Solubility of the compound in phosphate buffered saline by UV-spectroscopic analysis. The class given is physicochemical.
Another data set concerns HepG2. Kind of data set: Cytotoxicity against human HepG2 cells after 72 hrs by MTT assay. It counts as functional, cell-based. As to conditions: HepG2, 72 h. In general terms: Tetrazolium assays rely on reduction of a dye to a coloured formazan, in cell work by metabolically active cells.
For the next data set, the system named is MCF7. The data set is described as follows: Cytotoxicity against human MCF7 cells after 72 hrs by MTT assay. It counts as functional, cell-based. As to conditions: MCF7, 72 h.
The nature of data set [2]: Prodrug conversion in Sprague-Dawley rat plasma assessed as 10-hydroxycamptothecin formation at 4 mg measured within 2 hrs by UV-based RP-HPLC analysis. It counts as ADME, cell-free.
The nature of data set [3]: Prodrug conversion in Sprague-Dawley rat plasma assessed as SN38 formation at 4 mg measured within 2 hrs by UV-based RP-HPLC analysis. The class given is ADME, cell-free.
Setting [4] is: phosphate buffered saline, read-out: solubility.

Each structure is given as a SMILES string. ≈ marks a conversion by molar mass, not a printed value.

In general, solubility refers to the concentration that dissolves in the medium under given conditions. What is called IC50 is the concentration that inhibits the measured activity by half. Read a low IC50 as inhibition by little substance.

In the case of `CC[C@@]1(O)C(=O)OCc2c1cc1n(c2=O)Cc2cc3cc(OCCOCCOCCOCCO)ccc3nc2-1`, the solubility in data set [1] (setting [4]) turned out to be 0.95 mg/mL (≈ 1.76 mM). For the same compound, the concentration for half-maximal inhibition (IC50) in the data set with HepG2 worked out at 41.8 µM; in the data set with MCF7, 74.6 µM.
With `CC[C@@]1(O)C(=O)OCc2c1cc1n(c2=O)Cc2cc3cc(OC(=O)OCCOCCOCCOCCOCCOCCOCCOCCOCCOCCOCCOCCOCCOCCOCCOC)ccc3nc2-1`, the IC50 stood at 1.71 µM in the data set on HepG2 and 4.47 µM in the data set with MCF7.
As to `CC[C@@]1(OC(=O)OCCOCCOCCOCCOCCOCCOCCOCCOCCOCCOCCOCCOCCOCCOCCOCCOCCOCCOCCOCCOCCOCCOCCOCCOC)C(=O)OCc2c1cc1n(c2=O)Cc2cc3ccccc3nc2-1`, the solubility in data set [1] (setting [4]) came to 272 mg/mL (≈ 186 mM). For the same compound, the IC50 in the data set on HepG2 is 6.17 µM; with MCF7, 8.62 µM.
On the same counts, the results for `CC[C@@]1(O)C(=O)OCc2c1cc1n(c2=O)Cc2cc3cc(OCCOCCOCCOCCOCCOCCOCCO)ccc3nc2-1` are 73.3 mg/mL (≈ 109 mM), 62.4 µM and above 100 µM.
On to `CC[C@@]1(OC(=O)OCCOCCOCCOCCOCCOCCOCCOCCOCCOCCOCCOCCOCCOCCOCCOCCOCCOCCOCCOC)C(=O)OCc2c1cc1n(c2=O)Cc2cc3ccccc3nc2-1`, for which, in data set [1] (setting [4]), the solubility was found to be 143 mg/mL (≈ 115 mM). In addition, the IC50 was found to be 3.61 µM with HepG2 and 7.43 µM in the data set on MCF7.
In the case of `CC[C@@]1(O)C(=O)OCc2c1cc1n(c2=O)Cc2cc3cc(OC(=O)OCCOCCOCCOCCOCCOCCOCCOCCOCCOCCOCCOCCOCCOCCOCCOCCOCCOCCOCCOCCOC)ccc3nc2-1`, the IC50 in the data set on HepG2 is 3.62 µM; with MCF7, 6.88 µM.
On the same counts, the results for `CC[C@@]1(O)C(=O)OCc2c1cc1n(c2=O)Cc2cc3cc(OCCOCCOCCOCCOCCOCCOCCOCCOCCOCCOCCOCCO)ccc3nc2-1` are above 100 µM and above 100 µM.
On the same counts, the results for `CC[C@@]1(O)C(=O)OCc2c1cc1n(c2=O)Cc2cc3cc(OC(=O)OCCOCCOCCOCCOCCOCCOCCOCCOCCOCCOCCOCCOCCOCCOC)ccc3nc2-1` are 1.79 µM and 5.61 µM.
Turning to `CC[C@@]1(OC(=O)OCCOCCOCCOCCOCCOCCOCCOCCOCCOCCOCCOCCOC)C(=O)OCc2c1cc1n(c2=O)Cc2cc3ccccc3nc2-1`, the solubility in data set [1] (setting [4]) came out at 82.8 mg/mL (≈ 88.6 mM). Also, the half-inhibitory concentration (IC50) was determined as 5.97 µM in the data set with HepG2 and 3.36 µM in the data set with MCF7.
On the same counts, the results for `CC[C@@]1(OC(=O)OCCOCCOCCOCCOCCOCCOCCOCCOC)C(=O)OCc2c1cc1n(c2=O)Cc2cc3ccccc3nc2-1` are 0.38 mg/mL (≈ 0.501 mM), 5.47 µM and 7.42 µM.
In the case of `CCc1c2c(nc3ccc(OC(=O)OCCOCCOCCOCCOCCOCCOCCOCCOCCOCCOCCOCCOCCOCCOCCOCCOCCOCCOCCOCCOC)cc13)-c1cc3c(c(=O)n1C2)COC(=O)[C@]3(O)CC`, the results for the IC50 with HepG2 and with MCF7 were 1.98 µM and 3.08 µM, respectively.
For the compound `CC[C@@]1(OC(=O)OCCOCCOCCOCCOCCOCCOCCOCCOCCOCCOCCOCCOCCOCCOCCOCCOC)C(=O)OCc2c1cc1n(c2=O)Cc2cc3ccccc3nc2-1`, the solubility in data set [1] (setting [4]) is 136 mg/mL (≈ 122 mM). Further, the values for the concentration for half-maximal inhibition (IC50) with HepG2 and in the data set on MCF7 were 4.72 µM and 6.17 µM, respectively.
As for `CC[C@@]1(O)C(=O)OCc2c1cc1n(c2=O)Cc2cc3cc(OC(=O)OCCOCCOCCOCCOCCOCCOCCOCCOCCOCCOCCOC)ccc3nc2-1`, the IC50 is 2.51 µM with HepG2 and 4.64 µM in the data set with MCF7.
`CC[C@@]1(O)C(=O)OCc2c1cc1n(c2=O)Cc2cc3cc(OC(=O)OCCOCCOCCOCCOCCOCCOCCOCCOCCOCCOCCOCCOC)ccc3nc2-1`: the IC50 worked out at 2.21 µM in the data set with HepG2 and 2.85 µM in the data set with MCF7. Further, the Drug metabolism entry in data set [2] and in data set [3] was “Metabolite_Detected” each time.
As to `CC[C@@]1(O)C(=O)OCc2c1cc1n(c2=O)Cc2cc3cc(OCCOCCOCCOCCOCCOCCOCCOCCOCCOCCO)ccc3nc2-1`, the half-inhibitory concentration (IC50) in the data set on HepG2 and in the data set with MCF7 was above 100 µM in each case.
With `CC[C@@]1(O)C(=O)OCc2c1cc1n(c2=O)Cc2cc3cc(OC(=O)OCCOCCOCCOCCOCCOCCOCCOCCOCCOCCOCCOCCOCCOCCOCCOCCOCCOCCOCCOC)ccc3nc2-1`, the IC50 in the data set with HepG2 was 2.2 µM; in the data set with MCF7, 6.09 µM.
For the compound `CC[C@@]1(O)C(=O)OCc2c1cc1n(c2=O)Cc2cc3cc(OCCOCCOCCOCCOCCOCCOCCOCCO)ccc3nc2-1`, the solubility in data set [1] (setting [4]) came to 249 mg/mL (≈ 347 mM). The IC50 in the data set with HepG2 and in the data set on MCF7 was above 100 µM in each case.
In the case of `CC[C@@]1(O)C(=O)OCc2c1cc1n(c2=O)Cc2cc3cc(OC(=O)OCCOCCOCCOCCOCCOCCOCCOCCOC)ccc3nc2-1`, the solubility in data set [1] (setting [4]) came to 85.1 mg/mL (≈ 110 mM). Also, the results for the IC50 in the data set with HepG2 and in the data set with MCF7 were 3.06 µM and 5.39 µM, respectively.
On the same counts, the results for `CC[C@@]1(O)C(=O)OCc2c1cc1n(c2=O)Cc2cc3cc(OCCOCCOCCOCCOCCOCCO)ccc3nc2-1` are 11 mg/mL (≈ 17.4 mM), 50 µM and above 100 µM.
`CC[C@@]1(O)C(=O)OCc2c1cc1n(c2=O)Cc2cc3cc(OC(=O)OCCOCCOCCOCCOCCOCCOCCOCCOCCOCCOCCOCCOCCOCCOCCOCCOCCOCCOCCOCCOCCOCCOCCOCCOC)ccc3nc2-1`: the concentration for half-maximal inhibition (IC50) is 2.69 µM with HepG2 and 6.76 µM in the data set with MCF7.
Take `CC[C@@]1(OC(=O)OCCOCCOCCOCCOCCOCCOCCOCCOCCOCCOCCOCCOCCOCCOCCOCCOCCOCCOCCOCCOC)C(=O)OCc2c1cc1n(c2=O)Cc2cc3ccccc3nc2-1`: in data set [1] (setting [4]), the solubility is 183 mg/mL (≈ 142 mM). Moreover, the half-inhibitory concentration (IC50) in the data set on HepG2 stood at 6.87 µM; in the data set with MCF7 it was 8.09 µM.
Take `CCc1c2c(nc3ccc(OC(=O)OCCOCCOCCOCCOCCOCCOCCOCCOCCOCCOCCOCCOCCOCCOCCOC)cc13)-c1cc3c(c(=O)n1C2)COC(=O)[C@]3(O)CC`: the IC50 in the data set with HepG2 was 2.31 µM; in the data set on MCF7, 4.72 µM. Also, the Drug metabolism entry in data set [2] and in data set [3] was “Metabolite_Detected” each time.
In the case of `CC[C@@]1(OC(=O)OCCOCCOCCOCCOCCOCCOCCOCCOCCOCCOCCOC)C(=O)OCc2c1cc1n(c2=O)Cc2cc3ccccc3nc2-1`, the solubility in data set [1] (setting [4]) was determined as 79.5 mg/mL (≈ 89.2 mM). Further, the figures for the half-inhibitory concentration (IC50) in the data set on HepG2 and with MCF7 were 4.78 µM and 8.48 µM, respectively.
On the same counts, the results for `CC[C@@]1(O)C(=O)OCc2c1cc1n(c2=O)Cc2cc3cc(OCCOCCOCCOCCOCCO)ccc3nc2-1` are 6.34 mg/mL (≈ 10.8 mM), 70.3 µM and 95.8 µM.
In the case of `CC[C@@]1(O)C(=O)OCc2c1cc1n(c2=O)Cc2cc3cc(OCCOCCOCCOCCOCCOCCOCCOCCOCCO)ccc3nc2-1`, the 50% inhibitory concentration (IC50) in the data set with HepG2 and in the data set with MCF7 was above 100 µM each time.
As for `CC[C@@]1(O)C(=O)OCc2c1cc1n(c2=O)Cc2cc3cc(OCCOCCOCCOCCOCCOCCOCCOCCOCCOCCOCCO)ccc3nc2-1`, the concentration for half-maximal inhibition (IC50) in the data set with HepG2 and in the data set with MCF7 was above 100 µM throughout.
On to `CC[C@@]1(OC(=O)OCCOCCOCCOCCOCCOCCOCCOCCOCCOCCOCCOCCOCCOCCOCCOC)C(=O)OCc2c1cc1n(c2=O)Cc2cc3ccccc3nc2-1`, for which the solubility in data set [1] (setting [4]) stood at 114 mg/mL (≈ 106 mM). Further, the IC50 amounted to 7.07 µM in the data set on HepG2 and 8.53 µM with MCF7.
As to `CC[C@@]1(O)C(=O)OCc2c1cc1n(c2=O)Cc2cc3cc(OC(=O)OCCOCCOCCOCCOCCOCCOCCOCCOCCOCCOCCOCCOCCOCCOCCOCCOC)ccc3nc2-1`, the half-inhibitory concentration (IC50) was determined as 2.75 µM with HepG2 and 6.16 µM with MCF7.
Regarding `CC[C@@]1(OC(=O)OCCOCCOCCOCCOCCOCCOCCOCCOCCOCCOCCOCCOCCOCCOC)C(=O)OCc2c1cc1n(c2=O)Cc2cc3ccccc3nc2-1`, the solubility in data set [1] (setting [4]) was found to be 94.1 mg/mL (≈ 91.9 mM). For the same compound, the results for the IC50 in the data set on HepG2 and in the data set with MCF7 were 5.15 µM and 7.43 µM, respectively.
In the case of `CC[C@@]1(OC(=O)OCCOCCOCCOCCOCCOCCOCCOCCOCCOCCOC)C(=O)OCc2c1cc1n(c2=O)Cc2cc3ccccc3nc2-1`, the solubility in data set [1] (setting [4]) is 0.52 mg/mL (≈ 0.614 mM). Besides, the IC50 in the data set with HepG2 amounted to 4.48 µM; in the data set with MCF7 it was 10.3 µM.
On the same counts, the results for `CC[C@@]1(O)C(=O)OCc2c1cc1n(c2=O)Cc2cc3cc(OC(=O)OCCOCCOCCOCCOCCOCCOCCOCCOCCOCCOC)ccc3nc2-1` are 142 mg/mL (≈ 165 mM), 2.08 µM and 5.44 µM.
For `CCc1c2c(nc3ccc(O)cc13)-c1cc3c(c(=O)n1C2)COC(=O)[C@]3(O)CC` [7-ETHYL-10-HYDROXYCAMPTOTHECIN], in data set [1] (setting [4]), the solubility is 0.00087 mg/mL (≈ 0.00222 mM). Moreover, the IC50 worked out at 0.48 µM with HepG2 and 1.25 µM in the data set with MCF7.
Take `CC[C@@]1(O)C(=O)OCc2c1cc1n(c2=O)Cc2cc3ccccc3nc2-1` [CAMPTOTHECIN]: in data set [1] (setting [4]), the solubility came to 0.00069 mg/mL (≈ 0.00198 mM). Further, the IC50 stood at 0.66 µM in the data set on HepG2 and 0.68 µM in the data set on MCF7.
Take `CC[C@@]1(O)C(=O)OCc2c1cc1n(c2=O)Cc2cc3cc(O)ccc3nc2-1` [HYDROXYCAMPTOTHECIN]: in data set [1] (buffer), the solubility came to 0.00094 mg/mL (≈ 0.00258 mM). In addition, the half-maximal inhibitory concentration (IC50) in the data set with HepG2 turned out to be 1.47 µM; in the data set on MCF7 it was 3.58 µM.
